Source: patent publication US6656956B2, “Benzimidazole derivatives, processes for preparing them and their use as pharmaceutical compositions” (Boehringer Ingelheim Pharma KG, priority 2001, dated 2003)
Counter-ions that a name gives are not always drawn.

Target: T1, rh beta tryptase (Homo sapiens, UniProt Q15661)
T1 construct: purchased Promega
Assay: tryptase inhibition in vitro test (cleavage of N-p-tosyl-Gly-Pro-Lys-para-nitroaniline, p-nitroaniline measured at 405 nm)
Type: biochemical
Conditions: rh beta tryptase 0.91 U/ml, substrate 0.6 mM, Tris HCl buffer with calcium and heparin, pH 7.4, 37° C., 5 minutes incubation; read-out: Tryptase-inhibiting activity
Protocol: The compounds according to the invention are characterised by their tryptase-inhibiting activity. This ability to inhibit tryptase was investigated using the test described below.
The measurement is carried out in Tris HCl buffer (100 mM), which additionally contains calcium (5 mM) and heparin ([…]), at pH 7.4. The standard used is rh beta tryptase which may be obtained commercially from Promega, for example. The substrate used is N-p-tosyl-Gly-Pro-Lys-para-nitroaniline in a concentration of 0.6 mM. The substrate is digested with tryptase to form p-nitroaniline which can be measured at 405 nm. Usually, an incubation period of 5 minutes and an incubation temperature of 37° C. are chosen. The enzyme activity used is 0.91 U/ml. The measurements are carried out in an Autoanalyser (Cobas Bio) made by Hofmann LaRoche. The potential inhibitory substances are used in concentrations of 10 μM in the screening, the inhibition of the tryptase being given in percent. The IC50 is determined at over 70% inhibition (concentration at which 50% of the enzyme activity is inhibited). After 5 minutes' pre-incubation of the potential inhibitory substances, the substrate is added to start the reaction, the formation of p-nitroaniline being taken as a measurement of the enzyme activity after 5 minutes, after testing the linearity.

T1 sequence (Q15661 31-275): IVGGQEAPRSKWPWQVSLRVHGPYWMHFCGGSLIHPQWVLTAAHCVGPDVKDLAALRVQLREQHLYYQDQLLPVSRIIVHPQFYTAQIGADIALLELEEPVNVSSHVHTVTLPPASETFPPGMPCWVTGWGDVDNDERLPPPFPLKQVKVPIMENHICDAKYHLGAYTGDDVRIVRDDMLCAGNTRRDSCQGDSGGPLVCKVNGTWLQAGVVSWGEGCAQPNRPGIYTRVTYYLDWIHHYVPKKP

Row | IC50 [nM] | Compound
1 | 0.5 to 3 | Cn1c(CCc2ccc(C(=N)N)cc2)nc2cc(N(Cc3cccc4ccccc34)C(=O)CN3CCC(Nc4ccc(Cl)cc4)CC3)ccc21 [Example 10, N-{2-[2-(4-Amidinophenyl)-ethyl]-1-methyl-benzimidazol-5-yl}-N-[naphth-1-ylmethyl]-2-[4-(4-chlorophenylamino)-piperid-1-yl]-acetamide, dihydrochloride]
2 | 0.5 to 3 | Cn1c(CCc2ccc(C(=N)N)cc2)nc2cc(N(Cc3ccccc3)C(=O)CN3CCC(Nc4ccccc4F)CC3)ccc21 [Example 59, N-{2-[2-(4-Amidinophenyl)-ethyl]-1-methyl-benzimidazol-5-yl}-N-benzyl-2-[4-(2-fluorophenylamino)-piperid-1-yl]-acetamide, dihydrochloride]
3 | 4 to 30 | Cn1c(CCc2ccc(C(=N)N)cc2)nc2cc(N(Cc3cccc4ccccc34)C(=O)CN3CCC(N)CC3)ccc21 [Example 15, N-{2-[2-(4-Amidinophenyl)-ethyl]-1-methyl-benzimidazol-5-yl}-N-[naphth-1-ylmethyl]-2-[4-amino-piperid-1-yl]-acetamide, trihydrochloride]
4 | 4 to 30 | Cn1c(CCc2ccc(C(=N)N)cc2)nc2cc(N(Cc3cccc4ccccc34)C(=O)CN3CCC(Nc4ccccc4)CC3)ccc21 [Example 1, N-{2-[2-(4-Amidinophenyl)-ethyl]-1-methyl-benzimidazol-5-yl}-N-[naphth-1-ylmethyl]-2-(4-phenylamino-piperid-1-yl)-acetamide, Dihydrochloride]
5 | 31 to 1000 | Cn1c(CCc2ccc(C(=N)N)cc2)nc2cc(N(Cc3cccc4ccccc34)C(=O)N3CCC(Nc4ccccn4)CC3)ccc21 [Example 79, N-{2-[2-(4-Amidinophenyl)-ethyl]-1-methyl-benzimidazol-5-yl}-N-[naphth-1-ylmethyl]-N′-[4-(2-pyridyl)-amino]-piperid-1-ine-urea, hydrochloride]
6 | 4 to 30 | Cn1c(CCc2ccc(C(=N)N)cc2)nc2cc(N(Cc3cccc4ccccc34)C(=O)CN3CCC(Oc4ccccn4)CC3)ccc21 [Example 16, N-{2-[2-(4-Amidinophenyl)-ethyl]-1-methyl-benzimidazol-5-yl}-N-[naphth-1-ylmethyl]-2-[4-(2-pyridinoxy)-piperid-1-yl]-acetamide, dihydrochloride]
7 | 0.5 to 3 | CN(C(=O)CN1CCC(Nc2ccc(Cl)cc2Cl)CC1)c1ccc2c(c1)nc(CCc1ccc(C(=N)N)cc1)n2C [Example 32, N-{2-[2-(4-Amidinophenyl)-ethyl]-1-methyl-benzimidazol-5-yl}-N-methyl-2-[4-(2,4-dichlorophenylamino)-piperid-1-yl]-acetamide, dihydrochloride]
8 | 0.5 to 3 | CN(C(=O)CN1CCC(Nc2ccc3ccccc3c2)CC1)c1ccc2c(c1)nc(CCc1ccc(C(=N)N)cc1)n2C [Example 30, N-{2-[2-(4-Amidinophenyl)-ethyl]-1-methyl-benzimidazol-5-yl}-N-methyl-2-[4-(2-naphthylamino)-piperid-1-yl]-acetamide, dihydrochloride]
9 | 0.5 to 3 | CN(C(=O)CN1CCC(Nc2ccccc2F)CC1)c1ccc2c(c1)nc(CCc1ccc(C(=N)N)cc1)n2C [Example 36, N-{2-[2-(4-Amidinophenyl)-ethyl]-1-methyl-benzimidazol-5-yl}-N-methyl-2-[4-(2-fluorophenylamino)-piperid-1-yl]-acetamide, dihydrochloride]
10 | 0.5 to 3 | Cn1c(CCc2ccc(C(=N)N)cc2)nc2cc(N(Cc3cccc4ccccc34)C(=O)CN3CCC(Nc4ccccn4)CC3)ccc21 [Example 6, N-{2-[2-(4-Amidinophenyl)-ethyl]-1-methyl-benzimidazol-5-yl}-N-[naphth-1-ylmethyl]-2-[4-(2-pyridylamino-piperid-1-yl]-acetamide, dihydrochloride]
11 | 31 to 1000 | Cn1c(CCc2ccc(C(=N)N)cc2)nc2cc(N(Cc3cccc4ccccc34)C(=O)Nc3cccc(Cl)c3)ccc21 [Example 74, N-{2-[2-(4-Amidinophenyl)-ethyl]-1-methyl-benzimidazol-5-yl}-N-[naphth-1-ylmethyl]-N′-(3-chloro)-phenyl, hydrochloride]
12 | 4 to 30 | Cn1c(CCc2ccc(C(=N)N)cc2)nc2cc(N(Cc3cccc4ccccc34)C(=O)CN3CCC(NC(=O)c4ccccc4)CC3)ccc21 [Example 8, N-{2-[2-(4-Amidinophenyl)-ethyl]-1-methyl-benzimidazol-5-yl}-N-[naphth-1-ylmethyl]-2-[4-benzoic acid amide-piperid-1-yl]-acetamide, dihydrochloride]
13 | 4 to 30 | Cn1c(CCc2ccc(C(=N)N)cc2)nc2cc(N(Cc3cccc4ccccc34)C(=O)CN3CCC(Nc4ccc(O)cc4)CC3)ccc21 [Example 18, N-{2-[2-(4-Amidinophenyl)-ethyl]-1-methyl-benzimidazol-5-yl}-N-[naphth-1-ylmethyl]-2-[4-(4-hydroxyphenylamino)-piperid-1-yl]-acetamide, dihydrochloride]
14 | 0.5 to 3 | Cn1c(CCc2ccc(C(=N)N)cc2)nc2cc(N(Cc3ccccc3)C(=O)CN3CCC(Nc4ccccc4Cl)CC3)ccc21 [Example 58, N-{2-[2-(4-Amidinophenyl)-ethyl]-1-methyl-benzimidazol-5-yl}-N-benzyl-2-[4-(2-chlorophenylamino)-piperid-1-yl]-acetamide, dihydrochloride]
15 | 4 to 30 | CN(C(=O)CN1CCC(Nc2ccccn2)CC1)c1ccc2c(c1)nc(CCc1ccc(C(=N)N)cc1)n2C [Example 28, N-{2-[2-(4-Amidinophenyl)-ethyl]-1-methyl-benzimidazol-5-yl}-N-methyl-2-[4-(2-pyridylamino)-piperid-1-yl]-acetamide, dihydrochloride]
16 | 4 to 30 | Cn1c(CCc2ccc(C(=N)N)cc2)nc2cc(N(Cc3cccc4ccccc34)C(=O)CN3CCC(Nc4ccc(-c5ccccc5)cc4)CC3)ccc21 [Example 23, N-{2-[2-(4-Amidinophenyl)-ethyl]-1-methyl-benzimidazol-5-yl}-N-[naphth-1-ylmethyl]-2-[4-(4-biphenylamino)-piperid-1-yl]-acetamide, dihydrochloride]
17 | 4 to 30 | CN(C(=O)CN1CCC(Nc2ccccc2C(C)(C)C)CC1)c1ccc2c(c1)nc(CCc1ccc(C(=N)N)cc1)n2C [Example 64, dihydrochloride]
18 | 4 to 30 | Cn1c(CCc2ccc(C(=N)N)cc2)nc2cc(N(Cc3cccc4ccccc34)C(=O)CN3CCC(NC(=O)c4ccccn4)CC3)ccc21 [Example 7, N-{2-[2-(4-Amidinophenyl)-ethyl]-1-methyl-benzimidazol-5-yl}-N-[naphth-1-ylmethyl]-2-[4-(2-pyridylcarboxylic acid amide)-piperid-1-yl]-acetamide, dihydrochloride]
19 | 31 to 1000 | COc1cccc(NC(=O)N(Cc2cccc3ccccc23)c2ccc3c(c2)nc(CCc2ccc(C(=N)N)cc2)n3C)c1 [Example 73, N-{2-[2-(4-Amidinophenyl)-ethyl]-1-methyl-benzimidazol-5-yl}-N-[naphth-1-ylmethyl]-N′-(3-methoxy)-phenyl, hydrochloride]
20 | 4 to 30 | CN(C(=O)CN1CCC(N(C)c2ccc3ccccc3c2)CC1)c1ccc2c(c1)nc(CCc1ccc(C(=N)N)cc1)n2C [Example 34, N-{2-[2-(4-Amidinophenyl)-ethyl]-1-methyl-benzimidazol-5-yl}-N-methyl-2-[4-(2-naphthyl-N-methylamino)-piperid-1-yl]-acetamide, dihydrochloride]
21 | 4 to 30 | Cn1c(CCc2ccc(C(=N)N)cc2)nc2cc(N(Cc3cccc4ccccc34)C(=O)Nc3cccc4ccccc34)ccc21 [Example 75, N-{2-[2-(4-Amidinophenyl)-ethyl]-1-methyl-benzimidazol-5-yl}-N-[naphth-1-ylmethyl]-N′-(1-naphthyl)-urea, hydrochloride]
22 | 0.5 to 3 | CN(C(=O)CN1CCC(Nc2ccccc2I)CC1)c1ccc2c(c1)nc(CCc1ccc(C(=N)N)cc1)n2C [Example 37, N-{2-[2-(4-Amidinophenyl)-ethyl]-1-methyl-benzimidazol-5-yl}-N-methyl-2-[4-(2-iodophenylamino)-piperid-1-yl]-acetamide, dihydrochloride]
23 | 31 to 1000 | Cn1c(CCc2ccc(C(=N)N)cc2)nc2cc(NC(=O)CN3CCC(Nc4ccccn4)CC3)ccc21 [Example 52, N-{2-[2-(4-Amidinophenyl)-ethyl]-1-methyl-benzimidazol-5-yl}-2-[4-(2-pyridylamino)-piperid-1-yl]-acetamide, dihydrochloride]
24 | 0.5 to 3 | CN(C(=O)CN1CCC(Nc2ccccc2Br)CC1)c1ccc2c(c1)nc(CCc1ccc(C(=N)N)cc1)n2C [Example 35, N-{2-[2-(4-Amidinophenyl)-ethyl]-1-methyl-benzimidazol-5-yl}-N-methyl-2-[4-(2-bromophenylamino)-piperid-1-yl]-acetamide, dihydrochloride]
25 | 0.5 to 3 | Cn1c(CCc2ccc(C(=N)N)cc2)nc2cc(N(Cc3cccc4ccccc34)C(=O)CN3CCC(C(=O)c4ccccc4)CC3)ccc21 [Example 24, N-{2-[2-(4-Amidinophenyl)-ethyl]-1-methyl-benzimidazol-5-yl}-N-[naphth-1-ylmethyl]-2-[4-(phenylcarbonyl)-piperid-1-yl]-acetamide, dihydrochloride]
